From patent US20060177503A1, “Bambuterol and integrin inhibitor combination and treatment method” (priority 2005, published 2006)

What was measured:
[1] = target: plasma cholinesterase (Homo sapiens, UniProt P06276); conditions: cited from earlier work
[2] = Hydrolytic stability; type: physicochemical
Excerpt: The pharmaceutical dosage forms of the present invention can be prepared according to the examples set out below. […] Furthermore, both compounds are weak bases and the solubility and stability of the compounds are sensitive to counter-ions. In order to assure the stability of the product and to achieve desirable solubility of the dosage form, the choice of excipient is critical. Including an acidulating agent such as fumaric acid, adipic acid, succinic acid, tartaric acid, citric acid, lactic acid, maleic acid, etc., in the formulation, as well as eliminating soluble cations, is important to assure the solubility and stability of the product.

[3] = system: histamine induced bronchoconstriction; conditions: cited from earlier work
[4] = system: smooth muscle; conditions: cited from earlier work
[5] = system: atopic primate; assay: Airway inflammation in the atopic primate, oral R411; type: in vivo; conditions: oral administration, FIG. 4
[6] = target: T1, (Homo sapiens, UniProt P13612); assay: In vitro binding to α4 integrin, activated and not activated
T1 sequence (P13612 34-1032): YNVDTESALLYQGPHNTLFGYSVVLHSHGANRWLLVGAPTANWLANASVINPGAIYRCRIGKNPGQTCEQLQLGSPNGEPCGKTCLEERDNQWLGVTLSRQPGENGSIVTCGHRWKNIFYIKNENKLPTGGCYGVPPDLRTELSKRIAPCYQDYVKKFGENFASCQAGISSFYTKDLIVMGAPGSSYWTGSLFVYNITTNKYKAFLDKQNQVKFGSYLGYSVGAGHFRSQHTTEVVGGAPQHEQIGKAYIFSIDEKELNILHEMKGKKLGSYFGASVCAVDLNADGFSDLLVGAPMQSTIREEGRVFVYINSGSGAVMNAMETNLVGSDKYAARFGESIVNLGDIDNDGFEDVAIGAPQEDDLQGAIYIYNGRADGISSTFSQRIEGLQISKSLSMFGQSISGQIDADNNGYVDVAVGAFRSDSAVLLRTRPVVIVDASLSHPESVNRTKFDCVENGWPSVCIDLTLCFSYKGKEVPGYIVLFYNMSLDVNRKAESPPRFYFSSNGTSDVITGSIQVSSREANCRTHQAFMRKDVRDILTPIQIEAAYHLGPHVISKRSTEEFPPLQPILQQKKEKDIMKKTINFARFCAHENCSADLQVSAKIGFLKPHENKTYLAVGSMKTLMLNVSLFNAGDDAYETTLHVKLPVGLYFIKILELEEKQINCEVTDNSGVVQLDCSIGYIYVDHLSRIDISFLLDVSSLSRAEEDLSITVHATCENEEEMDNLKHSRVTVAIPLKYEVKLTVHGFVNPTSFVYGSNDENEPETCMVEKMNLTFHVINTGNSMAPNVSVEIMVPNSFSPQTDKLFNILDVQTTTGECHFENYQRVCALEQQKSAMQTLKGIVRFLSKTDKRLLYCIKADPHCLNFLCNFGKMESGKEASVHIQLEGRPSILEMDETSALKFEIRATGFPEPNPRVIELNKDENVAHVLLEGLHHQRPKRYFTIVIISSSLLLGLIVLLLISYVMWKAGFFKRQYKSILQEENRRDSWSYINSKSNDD

[7] = target: α4/β1 (Homo sapiens, UniProt P05556+P13612); assay: Inhibition of binding of α4/β1 to VCAM-1
Sequence of α4/β1 (P05556 21-798, one chain of several): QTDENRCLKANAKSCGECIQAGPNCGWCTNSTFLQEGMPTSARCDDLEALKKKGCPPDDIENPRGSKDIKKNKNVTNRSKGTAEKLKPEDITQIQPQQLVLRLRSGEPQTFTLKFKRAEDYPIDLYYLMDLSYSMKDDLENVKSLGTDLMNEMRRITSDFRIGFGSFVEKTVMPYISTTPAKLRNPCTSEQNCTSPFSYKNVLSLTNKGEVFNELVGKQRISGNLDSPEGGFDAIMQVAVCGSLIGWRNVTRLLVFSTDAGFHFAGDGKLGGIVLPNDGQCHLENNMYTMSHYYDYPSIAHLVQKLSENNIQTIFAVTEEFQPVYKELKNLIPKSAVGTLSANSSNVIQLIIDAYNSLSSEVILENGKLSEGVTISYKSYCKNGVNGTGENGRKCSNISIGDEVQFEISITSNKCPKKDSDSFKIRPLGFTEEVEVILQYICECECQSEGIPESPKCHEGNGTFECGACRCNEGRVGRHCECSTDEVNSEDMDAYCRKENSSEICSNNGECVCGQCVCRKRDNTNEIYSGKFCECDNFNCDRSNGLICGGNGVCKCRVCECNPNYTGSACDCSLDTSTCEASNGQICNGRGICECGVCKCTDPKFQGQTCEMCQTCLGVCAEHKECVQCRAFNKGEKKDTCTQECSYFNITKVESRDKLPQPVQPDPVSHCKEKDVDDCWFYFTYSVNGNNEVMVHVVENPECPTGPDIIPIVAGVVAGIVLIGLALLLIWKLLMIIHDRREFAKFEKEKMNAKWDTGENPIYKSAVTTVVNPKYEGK
Excerpt: (§1) R411 inhibits the binding of α4/β1 to vascular cell adhesion molecule (VCAM-1) and α4/β7 to MadCAM-1 by […] is disclosed in U.S. Pat. No. 6,229,011, which disclosure is incorporated by reference herein.

[8] = target: T2, α4/β7 (Homo sapiens, UniProt P13612+P26010); assay: Inhibition of binding of α4/β7 to MadCAM-1
T2 sequence (P13612 34-1032): T1 sequence (P13612 34-1032)
T2 sequence (P26010 20-798): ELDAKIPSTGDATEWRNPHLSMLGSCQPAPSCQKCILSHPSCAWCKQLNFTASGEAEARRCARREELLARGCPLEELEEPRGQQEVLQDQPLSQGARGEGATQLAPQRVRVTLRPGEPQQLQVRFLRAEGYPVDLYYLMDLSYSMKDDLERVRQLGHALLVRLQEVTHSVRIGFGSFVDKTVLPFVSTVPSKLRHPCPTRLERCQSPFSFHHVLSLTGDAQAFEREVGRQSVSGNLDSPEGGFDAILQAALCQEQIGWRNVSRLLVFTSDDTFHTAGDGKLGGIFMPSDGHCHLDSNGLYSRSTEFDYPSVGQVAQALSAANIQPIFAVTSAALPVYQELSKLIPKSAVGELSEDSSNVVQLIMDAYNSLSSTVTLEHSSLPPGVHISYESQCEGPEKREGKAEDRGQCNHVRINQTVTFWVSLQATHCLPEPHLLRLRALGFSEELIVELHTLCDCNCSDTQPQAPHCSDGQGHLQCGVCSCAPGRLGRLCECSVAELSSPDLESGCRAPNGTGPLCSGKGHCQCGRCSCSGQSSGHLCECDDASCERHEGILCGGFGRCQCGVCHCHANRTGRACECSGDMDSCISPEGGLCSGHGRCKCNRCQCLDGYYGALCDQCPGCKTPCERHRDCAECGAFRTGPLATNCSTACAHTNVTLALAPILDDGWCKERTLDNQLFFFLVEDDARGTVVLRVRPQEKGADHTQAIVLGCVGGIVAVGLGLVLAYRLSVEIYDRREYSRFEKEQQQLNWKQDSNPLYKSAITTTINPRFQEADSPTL
Excerpt: as §1

[9] = system: persistent asthmatics treated with low to medium inhaled corticosteroids; assay: MARS study: R411 added to inhaled corticosteroids, 12 week treatment period; type: in vivo, human; conditions: added to moderate dose inhaled corticosteroids, subpopulation with not well controlled asthma
Excerpt: As set out above, a second component in the solid pharmaceutical dosage form comprises a therapeutically effective amount of R411 (N-(2-chloro-6-methylbenzoyl)-4-[(2,6-dichlorobenzoyl)amino]-L-phenylalanine-2-(diethylamino)ethyl ester), or a pharmaceutically acceptable salt thereof. […] The MARS study illustrated in FIG. 2 was designed to evaluate the safety and efficacy of R411 over a 12 week treatment period in 350 persistent asthmatics being treated with a stable dose of low to medium inhaled corticosteroids and inhaled short acting β2-agonist. Patients were randomized to one of five cohorts: 50, 200, 600 mg once daily (QD) or 300 mg twice daily (BID) R411, or placebo (n=70/group). After a 2-week placebo run-in period and subsequent 2-week add-on period (R411 or placebo), morning inhaled corticosteroids were removed. Two weeks later, evening inhaled corticosteroids were removed, and patients remained in the treatment period for an additional 8 weeks. The primary endpoint in the study was the percentage change in FEV1 from baseline, and secondary endpoint included PEFR, asthma exacerbations, (2-agonist use, asthma control questionnaire, asthma symptom scores, nocturnal awakenings, FEF25-75 and rate of asthma treatment failures.

[10] = system: mild/moderate asthmatics not treated with inhaled corticosteroids; assay: ARES study: R411 monotherapy over a 12 week treatment period; type: in vivo, human
Description: The ARES study illustrated in FIG. 3 was designed to evaluate the safety and efficacy of monotherapy R411 over a 12 week treatment period in 480 mild/moderate asthmatics not treated with inhaled corticosteroids. Patients were randomized to one of four cohorts: 50, 200, 600 mg QD R411, or placebo (n=120/group).
The ARES study evaluated the safety and efficacy of monotherapy with R411 over a 12-week treatment period in 479 mild/moderate asthmatics not treated with inhaled corticosteroids. Patients were randomized to one of four cohorts: 50, 200, 600 mg once daily R411, or placebo.

[11] = system: key inflammatory cells; assay: Migration of inflammatory cells from the blood into the lungs; conditions: in vivo

Sequence of plasma cholinesterase (P06276 29-602): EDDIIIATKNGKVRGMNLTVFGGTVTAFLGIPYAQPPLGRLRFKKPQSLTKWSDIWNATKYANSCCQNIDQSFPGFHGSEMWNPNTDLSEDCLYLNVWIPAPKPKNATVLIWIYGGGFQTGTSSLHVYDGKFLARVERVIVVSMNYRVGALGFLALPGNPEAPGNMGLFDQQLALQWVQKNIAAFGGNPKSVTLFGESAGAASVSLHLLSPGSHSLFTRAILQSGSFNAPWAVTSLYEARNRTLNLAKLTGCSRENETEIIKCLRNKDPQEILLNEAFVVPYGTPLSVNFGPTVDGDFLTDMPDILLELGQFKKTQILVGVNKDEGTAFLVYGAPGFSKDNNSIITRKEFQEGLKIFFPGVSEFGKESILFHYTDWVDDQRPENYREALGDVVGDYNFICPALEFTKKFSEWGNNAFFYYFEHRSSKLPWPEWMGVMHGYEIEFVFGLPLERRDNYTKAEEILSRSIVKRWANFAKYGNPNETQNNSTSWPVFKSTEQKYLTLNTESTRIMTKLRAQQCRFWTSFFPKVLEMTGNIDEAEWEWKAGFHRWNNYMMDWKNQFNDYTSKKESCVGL

CN(C)C(=O)Oc1cc(OC(=O)N(C)C)cc(C(O)CNC(C)(C)C)c1 (single isomer, unassigned; (-)) [(−)-bambuterol]
activity as plasma cholinesterase inhibitors [1]: equally active

CN(C)C(=O)Oc1cc(OC(=O)N(C)C)cc([C@H](O)CNC(C)(C)C)c1 [(+)-bambuterol]
activity as plasma cholinesterase inhibitors [1]: equally active

CN(C)C(=O)Oc1cc(OC(=O)N(C)C)cc(C(O)CNC(C)(C)C)c1 (centres unmarked) [Bambuterol, dimethylcarbamic acid 5-[2-[(1,1-dimethylethyl)amino]-1-hydroxyethyl]-1,3-phenylene ester]
hydrolytic degradation [2]: susceptible to hydrolytic degradation
duration of the relaxing activity ([3]; equipotent doses, compared with terbutaline): more prolonged
protective effect against histamine induced bronchoconstriction ([3]; oral administration): sustained protective effect
smooth muscle relaxing properties [4]: did not exert any

CCN(CC)CCOC(=O)[C@H](Cc1ccc(NC(=O)c2c(Cl)cccc2Cl)cc1)NC(=O)c1c(C)cccc1Cl [R411, N-(2-Chloro-6-methylbenzoyl)-4-[(2,6-dichlorobenzoyl)amino]-L-phenylalanine-2-(diethylamino)ethyl ester]
airway inflammation [5]: attenuates airway inflammation
binding affinity ([6]; activated α4 ligand): high affinity
dissociation ([6]; activated α4 ligand): slow dissociation
dissociation ([6]; receptor not activated): more rapid
in vitro binding affinity ([6]; receptor not activated): lower
hydrolytic degradation [2]: susceptible to hydrolytic degradation
binding of α4/β1 to VCAM-1 [7]: inhibits
effectiveness against α4/β1 integrin [7]: effective
binding of α4/β7 to MadCAM-1 [8]: inhibits
effectiveness against α4/β7 integrin [8]: effective
large airway flow rates as measured by FEV1 ([9]; FIG. 1): additive effect
small airway flow rates measured by FEF25-75 ([9]; FIG. 2): additive effect
Asthma Control Questionnaire Scores ([10]; compared to placebo): Improvement
Asthma Quality-of-Life ([10]; compared to placebo): Improvement
decrease in daytime asthma symptom score ([10]; monotherapy, 12 weeks): Statistically significant improvements
decrease in nocturnal symptom score ([10]; monotherapy, 12 weeks): Statistically significant improvements
reducing rescue albuterol use ([10]; monotherapy, 12 weeks): Statistically significant improvements
small airway flow rates as measured by FEF25-75 ([10]; monotherapy, FIG. 3): significant effect
migration of key inflammatory cells from the blood into the lungs [11]: block the migration

CN(C)C(=O)Oc1cc(O)cc(C(O)CNC(C)(C)C)c1 (centres unmarked) [monocarbamate ester]
smooth muscle relaxing properties [4]: did not exert any
